Here are results for ten compounds from ChEMBL document CHEMBL1201862, “PubChem BioAssay data set” (2004).

Some test systems named below: A549; CAKI-1; HCT-15; HL-60; HOP-92; Hs-578T; LOX IMVI; M14; MDA-MB-435; MOLT-4; NCI/ADR-RES; OVCAR-8; SF-539; SNB-19; SNB-75; SR; T47D; U-251; UACC-257; UACC-62.
Common to all, as to assay: NCI tumour cell line growth inhibition, 48 h

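Step 1: Grow cells in 96-well plates. Step 2: Expose to compound for 48 hours at 5 concentrations. Step 3: Interpolate endpoints linearly; if unreached, use highest concentration. Abbreviation: GI50, concentration required for 50% inhibition of growth.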 Activity calls are given as the source filed them. Cut-off read from the data, not from the text of the source: active = GI50 up to about 1.1 µM and inactive = higher.

Consider `CSc1ncc2c(C#N)c3sc4ccccc4n3c(=O)c2n1`, for which the GI50 is 78.3 µM (inactive) in the experiment with A549; 73.8 µM (inactive) with CAKI-1; 80.4 µM with HCT-15; > 100 µM (inactive) in the experiment with HL-60; > 100 µM (inactive) in the experiment with HOP-92; 24.6 µM (inactive) in the experiment with Hs-578T. Besides, the GI50 in the experiment with LOX IMVI is > 100 µM (inactive); with M14, > 100 µM (inactive); in the experiment on MDA-MB-435 it was > 100 µM (inactive); in the experiment on MOLT-4 it was > 100 µM (inactive); in the experiment with NCI/ADR-RES it was 38.8 µM (inactive); with OVCAR-8 it was 26.1 µM (inactive). Moreover, the GI50 in the experiment on SF-539 was 40.1 µM (inactive); in the experiment on SNB-19 it was 37.8 µM (inactive); in the experiment on SNB-75 it was 43.5 µM (inactive); in the experiment with SR it was 19.6 µM (inactive); in the experiment on T47D, 91.8 µM (inactive); with U-251, 24 µM (inactive). The GI50 in the experiment on UACC-257 and in the experiment with UACC-62 was > 100 µM (inactive) in each case.
On to `Clc1ccc(-c2cn3c(nc4ccccc43)c(-c3ccccc3)n2)cc1`, for which the GI50 is 17.4 µM (inactive) with A549; 16.3 µM (inactive) in the experiment on CAKI-1; greater than 100 µM with HCT-15; > 100 µM (inactive) in the experiment on HL-60; 18 µM (inactive) in the experiment with HOP-92; 12.3 µM (inactive) in the experiment with Hs-578T. Also, the GI50 is 32 µM (inactive) in the experiment with LOX IMVI; 28.3 µM (inactive) in the experiment on M14; 25.2 µM (inactive) with MDA-MB-435; > 100 µM (inactive) in the experiment with MOLT-4; 34.9 µM (inactive) with NCI/ADR-RES; 12.1 µM (inactive) with OVCAR-8. In addition, the GI50 in the experiment on SF-539 is 22.3 µM (inactive); in the experiment on SNB-19 it was 13.9 µM (inactive); in the experiment on SNB-75, 9.51 µM (inactive); in the experiment with SR it was > 82 µM (inactive); in the experiment with T47D, 36.6 µM (inactive); in the experiment on U-251, 12.8 µM (inactive). For the same compound, the GI50 in the experiment with UACC-257 is 61.2 µM (inactive); in the experiment with UACC-62 it was 11.4 µM (inactive).
In the case of `CN(Cc1c2ccccc2cc2ccccc12)S(=O)(=O)c1ccc(-c2c3nc(c(-c4ccc(S(=O)(=O)N(C)Cc5c6ccccc6cc6ccccc56)cc4)c4ccc([nH]4)c(-c4ccc(S(=O)(=O)N(C)Cc5c6ccccc6cc6ccccc56)cc4)c4nc(c(-c5ccc(S(=O)(=O)N(C)Cc6c7ccccc7cc7ccccc67)cc5)c5ccc2[nH]5)C=C4)C=C3)cc1`, the GI50 is > 100 µM (inactive) with A549; > 100 µM (inactive) with CAKI-1; greater than 100 µM in the experiment on HCT-15; > 100 µM (inactive) in the experiment on HL-60; 29.2 µM (inactive) in the experiment on HOP-92; 57.8 µM (inactive) in the experiment with Hs-578T. Further, the GI50 in the experiment with LOX IMVI, with M14, with MDA-MB-435, with MOLT-4, with NCI/ADR-RES and in the experiment with OVCAR-8 was > 100 µM (inactive) throughout. For the same compound, the GI50 was 99.1 µM (inactive) in the experiment on SF-539; 44 µM (inactive) in the experiment with SNB-19; 24.4 µM (inactive) in the experiment on SNB-75; > 100 µM (inactive) in the experiment with SR; > 100 µM (inactive) with T47D; 47.2 µM (inactive) in the experiment with U-251. In addition, the GI50 in the experiment on UACC-257 and in the experiment with UACC-62 was > 100 µM (inactive) throughout.
As for `COC(=O)C(Cc1ccccc1)NC(=O)CCCNC(=O)OCc1ccccc1` (stereo not given), the GI50 was > 100 µM (inactive) with A549; > 100 µM (inactive) in the experiment with CAKI-1; greater than 100 µM in the experiment with HCT-15; 33.7 µM (inactive) in the experiment with HL-60; 99.1 µM (inactive) in the experiment with HOP-92; > 100 µM (inactive) in the experiment with Hs-578T. Besides, the GI50 in the experiment on LOX IMVI was > 100 µM (inactive); in the experiment with M14 it was 17.1 µM (inactive); in the experiment with MDA-MB-435, 86.1 µM (inactive); in the experiment on MOLT-4 it was 29.2 µM (inactive); with NCI/ADR-RES, > 100 µM (inactive); in the experiment with OVCAR-8, > 100 µM (inactive). For the same compound, the GI50 was > 100 µM (inactive) in the experiment with SNB-19; > 100 µM (inactive) in the experiment on SNB-75; 44.7 µM (inactive) with SR; 71.3 µM (inactive) with T47D; > 100 µM (inactive) with U-251; 49.9 µM (inactive) in the experiment on UACC-62.
As for `NC(=S)NNC(=S)NC(=O)c1ccco1`, the GI50 was > 10 µM (inactive) in the experiment on A549; > 10 µM (inactive) in the experiment on CAKI-1; greater than 10 µM with HCT-15; > 10 µM (inactive) in the experiment with HL-60; > 10 µM (inactive) in the experiment on HOP-92; > 10 µM (inactive) with Hs-578T. Besides, the GI50 with LOX IMVI, with M14, in the experiment with MDA-MB-435, in the experiment with MOLT-4, with NCI/ADR-RES and with OVCAR-8 was > 10 µM (inactive) throughout. Moreover, the GI50 with SNB-19, in the experiment with SNB-75, in the experiment with SR, with T47D, in the experiment with U-251 and with UACC-257 was > 10 µM (inactive) each time. Also, the GI50 in the experiment on UACC-62 was > 10 µM (inactive).
For the compound `COc1ccc(C(=O)c2sc(N(C)C)nc2-c2ccccc2)cc1`, the GI50 with A549 was 36 µM (inactive); in the experiment on HCT-15, 26.4 µM; in the experiment with HL-60, 17.1 µM (inactive); with HOP-92, 91.6 µM (inactive); in the experiment with Hs-578T, 38.7 µM (inactive); with LOX IMVI it was 37.4 µM (inactive). Further, the GI50 with M14 was 35.3 µM (inactive); with MDA-MB-435 it was 6.4 µM (inactive); with MOLT-4, 81.3 µM (inactive); in the experiment on NCI/ADR-RES, 19.8 µM (inactive); with SF-539, 58.7 µM (inactive); in the experiment on SNB-19, 64.3 µM (inactive). In addition, the GI50 was 35.2 µM (inactive) with SNB-75; 17.1 µM (inactive) in the experiment with SR; 33.6 µM (inactive) with T47D; 43 µM (inactive) in the experiment with U-251; 26.1 µM (inactive) in the experiment on UACC-257; 30.8 µM (inactive) with UACC-62.
On to `CC(=O)OCc1cn(S(=O)(=O)c2ccc(C)cc2)cn1`, for which the GI50 was 84.5 µM (inactive) in the experiment on A549; > 100 µM (inactive) in the experiment on CAKI-1; 18.5 µM in the experiment on HCT-15; > 100 µM (inactive) in the experiment with HL-60; > 100 µM (inactive) with HOP-92; 36.5 µM (inactive) with Hs-578T. In addition, the GI50 in the experiment with LOX IMVI is 47.5 µM (inactive); with M14 it was 25.3 µM (inactive); in the experiment with MDA-MB-435, 19.6 µM (inactive); in the experiment on MOLT-4, 46.5 µM (inactive); in the experiment with NCI/ADR-RES, > 100 µM (inactive); in the experiment with OVCAR-8 it was > 100 µM (inactive). Also, the GI50 is 16.4 µM (inactive) in the experiment on SF-539; > 100 µM (inactive) in the experiment with SNB-19; > 100 µM (inactive) with SNB-75; 9.51 µM (inactive) in the experiment on SR; > 100 µM (inactive) in the experiment on T47D; > 100 µM (inactive) in the experiment on U-251. In the experiment with UACC-62, the GI50 is 75.2 µM (inactive).
As to `C=CCNC1=C2C[C@@H](C)C[C@@H](OC)[C@H](OC(=O)CCN)[C@H](C)/C=C(\C)[C@@H](OC(N)=O)[C@H](OC)/C=C\C=C(/C)C(=O)NC(=CC1=O)C2=O`, the GI50 was 3.4 µM (inactive) in the experiment with A549; 12.2 µM (inactive) in the experiment with CAKI-1; 9.57 µM in the experiment with HCT-15; 3.83 µM (inactive) with HL-60; 4.49 µM (inactive) with HOP-92; 14.5 µM (inactive) with Hs-578T. Further, the GI50 with LOX IMVI was 3.03 µM (inactive); with M14 it was 3.71 µM (inactive); in the experiment on MDA-MB-435 it was 2.98 µM (inactive); in the experiment on MOLT-4 it was 3.86 µM (inactive); in the experiment with NCI/ADR-RES, 76.2 µM (inactive); in the experiment with OVCAR-8, 4.18 µM (inactive). For the same compound, the GI50 in the experiment with SNB-19 was 6.27 µM (inactive); with SNB-75, 3.18 µM (inactive); with SR, 0.938 µM (active); in the experiment on T47D it was 4.89 µM (inactive); in the experiment with U-251 it was 5.09 µM (inactive); in the experiment on UACC-257, 2.42 µM (inactive). Moreover, in the experiment with UACC-62, the GI50 was 2.9 µM (inactive).
With `Nc1ccc(Oc2ccc(C34CC5CC(C3)CC(c3ccc(Oc6ccc(N)cc6)cc3)(C5)C4)cc2)cc1`, the GI50 is 11.1 µM (inactive) with A549; 13.5 µM (inactive) with CAKI-1; 10.8 µM in the experiment with HCT-15; > 41.3 µM (inactive) in the experiment with HL-60; 6.05 µM (inactive) in the experiment on HOP-92; 20.2 µM (inactive) with Hs-578T. Also, the GI50 with LOX IMVI was 6.25 µM (inactive); in the experiment on M14, 10.4 µM (inactive); in the experiment with MDA-MB-435, 7.53 µM (inactive); in the experiment with NCI/ADR-RES it was 13.9 µM (inactive); with OVCAR-8, 5.26 µM (inactive); with SF-539 it was 13.7 µM (inactive). Besides, the GI50 is 12 µM (inactive) in the experiment with SNB-19; 24 µM (inactive) in the experiment with SNB-75; 3.56 µM (inactive) with SR; 6.84 µM (inactive) in the experiment with T47D; 5.43 µM (inactive) with U-251; 9.86 µM (inactive) in the experiment on UACC-257. Further, the GI50 in the experiment with UACC-62 was 10.4 µM (inactive).
Regarding `CCc1nn(CN2CCOCC2)c(=S)n1/N=C/c1ccc(-c2ccc(Cl)cc2)o1`, the GI50 was > 100 µM (inactive) in the experiment with A549; > 100 µM (inactive) in the experiment on CAKI-1; greater than 100 µM in the experiment on HCT-15; 81.1 µM (inactive) in the experiment with HL-60; > 100 µM (inactive) in the experiment with HOP-92; > 100 µM (inactive) in the experiment on Hs-578T. Further, the GI50 in the experiment with LOX IMVI, in the experiment with M14, with MDA-MB-435, in the experiment with MOLT-4, with NCI/ADR-RES and with OVCAR-8 was > 100 µM (inactive) in each case. The GI50 with SF-539 was > 100 µM (inactive); in the experiment with SNB-75 it was 50.8 µM (inactive); in the experiment with SR, 80.5 µM (inactive); in the experiment on T47D, > 100 µM (inactive); in the experiment on U-251, > 100 µM (inactive); in the experiment on UACC-257, > 100 µM (inactive).
